Test system: MV-4-11 cells
Test: Gene expression microarray analysis (Affymetrix PrimeView) and GSEA
Format: cell-based, human
Parameters: RFU PODN (11730768_x_at) / Fold change /veh PODN (11730768_x_at) / RFU LINC00158 (11744669_a_at) / Fold change /veh LINC00158 (11744669_a_at) / RFU DUSP10 (11751237_a_at) / Fold change /veh DUSP10 (11751237_a_at) / RFU ID3 (11757404_x_at) / Fold change /veh ID3 (11757404_x_at) / RFU PLEKHG5 (11737974_s_at) / Fold change /veh PLEKHG5 (11737974_s_at) / RFU LRRC4B (11730491_at) / Fold change /veh LRRC4B (11730491_at) / RFU GIMAP4 (11747438_a_at) / Fold change /veh GIMAP4 (11747438_a_at) / RFU KRT8 (11758183_x_at) / Fold change /veh KRT8 (11758183_x_at) / RFU CNN1 (11734310_a_at) / Fold change /veh CNN1 (11734310_a_at) / RFU VPS37D (11726825_at) / Fold change /veh VPS37D (11726825_at) / RFU C10orf10 (11716522_x_at) / Fold change /veh C10orf10 (11716522_x_at) / RFU KIR2DL2 /// KIR2DL4 /// KIR2DL5A /// KIR2DL5B /// KIR2DS1 /// KIR2DS2 /// KIR2DS3 /// KIR2DS4 /// KIR3DL3 /// KIR3DL3 /// KIR3DS1 (11738374_at) / Fold change /veh KIR2DL2 /// KIR2DL4 /// KIR2DL5A /// KIR2DL5B /// KIR2DS1 /// KIR2DS2 /// KIR2DS3 /// KIR2DS4 /// KIR3DL3 /// KIR3DL3 /// KIR3DS1 (11738374_at) / RFU C1QL1 (11718748_at) / Fold change /veh C1QL1 (11718748_at) / RFU TMPRSS4 (11747572_a_at) / Fold change /veh TMPRSS4 (11747572_a_at) / RFU HAMP (11756126_x_at) / Fold change /veh HAMP (11756126_x_at) / RFU RNFT2 (11725882_a_at) / Fold change /veh RNFT2 (11725882_a_at) / RFU NR4A2 (11747474_a_at) / Fold change /veh NR4A2 (11747474_a_at) / RFU ABCC12 (11746883_a_at) / Fold change /veh ABCC12 (11746883_a_at) / RFU TMEM136 (11760407_x_at) / Fold change /veh TMEM136 (11760407_x_at) / RFU CLDN22 /// WWC2 (11732394_at) / Fold change /veh CLDN22 /// WWC2 (11732394_at) / RFU HLA-DPB1 (11760878_x_at) / Fold change /veh HLA-DPB1 (11760878_x_at) / RFU SPINT1 (11716480_a_at) / Fold change /veh SPINT1 (11716480_a_at) / RFU GAP43 (11754022_s_at) / Fold change /veh GAP43 (11754022_s_at) / RFU A4GNT (11735810_at) / Fold change /veh A4GNT (11735810_at) / RFU PRB3 (11715151_x_at) / Fold change /veh PRB3 (11715151_x_at) / RFU TUBB4B (11761932_at) / Fold change /veh TUBB4B (11761932_at) / RFU CAPN14 (11732068_a_at) / Fold change /veh CAPN14 (11732068_a_at) / RFU TMCC2 (11721928_a_at) / Fold change /veh TMCC2 (11721928_a_at) / RFU IRGQ (11745062_a_at) / Fold change /veh IRGQ (11745062_a_at) / RFU FAM174B (11720279_a_at) / Fold change /veh FAM174B (11720279_a_at) / RFU TMPRSS4 (11748680_a_at) / Fold change /veh TMPRSS4 (11748680_a_at) / RFU FAM212B (11763350_a_at) / Fold change /veh FAM212B (11763350_a_at) / RFU PLEKHG5 (11743358_a_at) / Fold change /veh PLEKHG5 (11743358_a_at) / RFU ZSCAN30 (11745921_a_at) / Fold change /veh ZSCAN30 (11745921_a_at) / RFU CMKLR1 (11741424_a_at) / Fold change /veh CMKLR1 (11741424_a_at) / RFU LOC101060620 /// MAPK8IP1 (11723275_at) / Fold change /veh LOC101060620 /// MAPK8IP1 (11723275_at) / RFU SPTSSB (11747773_x_at) / Fold change /veh SPTSSB (11747773_x_at) / RFU PRSS12 (11739890_at) / Fold change /veh PRSS12 (11739890_at) / RFU BIN1 (11741810_x_at) / Fold change /veh BIN1 (11741810_x_at) / RFU WNT11 (11732464_a_at) / Fold change /veh WNT11 (11732464_a_at) / RFU C10orf10 (11716521_a_at) / Fold change /veh C10orf10 (11716521_a_at) / RFU C5orf56 (11738089_at) / Fold change /veh C5orf56 (11738089_at) / RFU CYB561 (11721691_x_at) / Fold change /veh CYB561 (11721691_x_at) / RFU ANKRD19P (11752326_a_at) / Fold change /veh ANKRD19P (11752326_a_at) / RFU OR2T12 /// OR2T33 /// OR2T8 (11738714_s_at) / Fold change /veh OR2T12 /// OR2T33 /// OR2T8 (11738714_s_at) / RFU VCAN (11748164_a_at) / Fold change /veh VCAN (11748164_a_at) / RFU JSRP1 (11732532_at) / Fold change /veh JSRP1 (11732532_at) / RFU KRTAP10-11 (11738290_x_at) / Fold change /veh KRTAP10-11 (11738290_x_at) / RFU MYO3A (11730013_a_at) / Fold change /veh MYO3A (11730013_a_at) / RFU EBF3 (11725865_a_at) / Fold change /veh EBF3 (11725865_a_at) / RFU CAMK2N1 (11719241_x_at) / Fold change /veh CAMK2N1 (11719241_x_at) / RFU C5orf56 (11738088_a_at) / Fold change /veh C5orf56 (11738088_a_at) / RFU OLFML3 (11715873_a_at) / Fold change /veh OLFML3 (11715873_a_at) / RFU LOC100653217 /// NTM (11731650_a_at) / Fold change /veh LOC100653217 /// NTM (11731650_a_at) / RFU MAPK11 (11762145_a_at) / Fold change /veh MAPK11 (11762145_a_at) / RFU FIZ1 (11724087_x_at) / Fold change /veh FIZ1 (11724087_x_at) / RFU OASL (11726364_x_at) / Fold change /veh OASL (11726364_x_at) / RFU SOX15 (11748057_x_at) / Fold change /veh SOX15 (11748057_x_at) / RFU CD79A (11719716_a_at) / Fold change /veh CD79A (11719716_a_at) / RFU HIST1H1D (11736915_at) / Fold change /veh HIST1H1D (11736915_at) / RFU CASKIN2 (11723855_a_at) / Fold change /veh CASKIN2 (11723855_a_at) / RFU LOC730098 (11760151_x_at) / Fold change /veh LOC730098 (11760151_x_at) / RFU OR4N2 (11742367_at) / Fold change /veh OR4N2 (11742367_at) / RFU PRRT2 (11749266_a_at) / Fold change /veh PRRT2 (11749266_a_at) / RFU SNX32 (11753110_a_at) / Fold change /veh SNX32 (11753110_a_at) / RFU CDHR5 (11726645_a_at) / Fold change /veh CDHR5 (11726645_a_at) / RFU RCAN1 (11760418_a_at) / Fold change /veh RCAN1 (11760418_a_at) / RFU FAM167A (11723789_a_at) / Fold change /veh FAM167A (11723789_a_at) / RFU FAM26E (11764081_at) / Fold change /veh FAM26E (11764081_at) / RFU ISYNA1 (11749810_s_at) / Fold change /veh ISYNA1 (11749810_s_at) / RFU ACY1 (11761880_at) / Fold change /veh ACY1 (11761880_at) / RFU 11764098_at / Fold change /veh 11764098_at / RFU SAMD14 (11745864_x_at) / Fold change /veh SAMD14 (11745864_x_at) / RFU NPB (11741838_a_at) / Fold change /veh NPB (11741838_a_at) / RFU TMPRSS6 (11731388_a_at) / Fold change /veh TMPRSS6 (11731388_a_at) / RFU KRTAP10-2 (11738614_at) / Fold change /veh KRTAP10-2 (11738614_at) / RFU ARHGAP8 /// PRR5-ARHGAP8 (11727945_x_at) / Fold change /veh ARHGAP8 /// PRR5-ARHGAP8 (11727945_x_at) / RFU KRTAP5-7 /// NADSYN1 (11734609_at) / Fold change /veh KRTAP5-7 /// NADSYN1 (11734609_at) / RFU RASL12 (11751679_a_at) / Fold change /veh RASL12 (11751679_a_at) / RFU CDKN2B (11736163_a_at) / Fold change /veh CDKN2B (11736163_a_at) / RFU PRF1 (11729649_at) / Fold change /veh PRF1 (11729649_at) / RFU, ZNF638 /// ZNF638-IT1 / Fold change vs veh, ZNF638 /// ZNF638-IT1 / RFU, PANK3 / Fold change vs veh, PANK3 / RFU, SH3YL1 / Fold change vs veh, SH3YL1 / RFU, ZEB2 / Fold change vs veh, ZEB2 / RFU, NRIP1 / Fold change vs veh, NRIP1 / RFU, PTTG1IP / Fold change vs veh, PTTG1IP / RFU, CAPN2 / Fold change vs veh, CAPN2 / RFU, MED14 / Fold change vs veh, MED14 / RFU, SNORA58 / Fold change vs veh, SNORA58 / RFU, C1orf63 / Fold change vs veh, C1orf63 / RFU, LRRFIP1 / Fold change vs veh, LRRFIP1 / RFU, NDUFAF7 / Fold change vs veh, NDUFAF7 / RFU, SLC12A2 / Fold change vs veh, SLC12A2 / RFU, IBTK / Fold change vs veh, IBTK / RFU, ESF1 / Fold change vs veh, ESF1 / Fold change vs veh, TMEM50B / RFU, TAOK1 / Fold change vs veh, TAOK1 / RFU, ACBD3 / Fold change vs veh, ACBD3 / RFU, TMA16 / Fold change vs veh, TMA16 / RFU, RWDD3 / Fold change vs veh, RWDD3 / RFU, BCAT1 / Fold change vs veh, BCAT1 / RFU, EDEM3 / Fold change vs veh, EDEM3 / RFU, TMEM33 / Fold change vs veh, TMEM33 / RFU, WDR75 / Fold change vs veh, WDR75 / RFU, AHCTF1 / Fold change vs veh, AHCTF1 / RFU, TFRC / Fold change vs veh, TFRC / RFU, ZDHHC17 / Fold change vs veh, ZDHHC17 / RFU, NOM1 / Fold change vs veh, NOM1 / RFU, ARL8B / Fold change vs veh, ARL8B / RFU, ZBTB11 / Fold change vs veh, ZBTB11 / RFU, TAMM41 / Fold change vs veh, TAMM41 / RFU, KIAA1704 /// LOC100996395 / Fold change vs veh, KIAA1704 /// LOC100996395 / RFU, ING1 / Fold change vs veh, ING1 / RFU, TRMT61B / Fold change vs veh, TRMT61B / RFU, FUBP3 / Fold change vs veh, FUBP3 / RFU, TP53 / Fold change vs veh, TP53 / RFU, TNKS2 / Fold change vs veh, TNKS2 / RFU, ZFP14 / Fold change vs veh, ZFP14 / RFU, ACTR2 / Fold change vs veh, ACTR2 / RFU, PPP3R1 / Fold change vs veh, PPP3R1 / RFU, PIK3R1 / Fold change vs veh, PIK3R1 / RFU, HNRNPA1 / Fold change vs veh, HNRNPA1 / RFU, RNF170 / Fold change vs veh, RNF170 / RFU, ZNF28 / Fold change vs veh, ZNF28 / RFU, RNGTT / Fold change vs veh, RNGTT / RFU, OGT / Fold change vs veh, OGT / RFU, BRD1 / Fold change vs veh, BRD1 / RFU, MARS / Fold change vs veh, MARS / RFU, ZNF655 / Fold change vs veh, ZNF655 / RFU, FAHD1 / Fold change vs veh, FAHD1 / RFU, BDP1 / Fold change vs veh, BDP1 / RFU, LRRCC1 / Fold change vs veh, LRRCC1 / RFU, ARID1A / Fold change vs veh, ARID1A / RFU, ZNF146 / Fold change vs veh, ZNF146 / RFU, ZNF330 / Fold change vs veh, ZNF330 / RFU, GPN3 / Fold change vs veh, GPN3 / RFU, C9orf123 / Fold change vs veh, C9orf123 / RFU, N4BP2L2 / Fold change vs veh, N4BP2L2 / RFU, ARFIP1 / Fold change vs veh, ARFIP1 / RFU, FAM179B / Fold change vs veh, FAM179B / RFU, BCL10 / Fold change vs veh, BCL10 / RFU, UHRF1BP1L / Fold change vs veh, UHRF1BP1L / RFU, BET1 / Fold change vs veh, BET1 / RFU, CNOT2 / Fold change vs veh, CNOT2 / RFU, ZNF268 / Fold change vs veh, ZNF268 / Fold change vs veh, ZNF507 / RFU, DGCR2 / Fold change vs veh, DGCR2 / RFU, WDSUB1 / Fold change vs veh, WDSUB1 / Fold change vs veh, HSP90B1 /// MIR3652 / RFU, ADSS / Fold change vs veh, ADSS / RFU, GK / Fold change vs veh, GK / RFU, ZNF148 / Fold change vs veh, ZNF148 / RFU, TAF9 / Fold change vs veh, TAF9 / RFU, SLC1A5 / Fold change vs veh, SLC1A5 / RFU, SLMO2 / Fold change vs veh, SLMO2 / RFU, ABCC4 / Fold change vs veh, ABCC4 / RFU, LOC101060439 /// RAP1B / Fold change vs veh, LOC101060439 /// RAP1B / RFU, RFX7 / Fold change vs veh, RFX7 / RFU, GTPBP10 / Fold change vs veh, GTPBP10 / RFU, CNEP1R1 / Fold change vs veh, CNEP1R1 / RFU, BIVM-ERCC5 /// ERCC5 / Fold change vs veh, BIVM-ERCC5 /// ERCC5 / RFU, ILF3 / Fold change vs veh, ILF3 / RFU 11762660_at / Fold change /veh 11762660_at / RFU VCAN (11757783_s_at) / Fold change /veh VCAN (11757783_s_at) / RFU DDX43 (11728927_at) / Fold change /veh DDX43 (11728927_at) / RFU KRT8 (11758188_x_at) / Fold change /veh KRT8 (11758188_x_at) / RFU NKD1 (11759106_at) / Fold change /veh NKD1 (11759106_at) / RFU SRD5A1 (11742802_a_at) / Fold change /veh SRD5A1 (11742802_a_at) / RFU TPSAB1 /// TPSB2 (11721975_s_at) / Fold change /veh TPSAB1 /// TPSB2 (11721975_s_at) / RFU GSTM3 (11746129_a_at) / Fold change /veh GSTM3 (11746129_a_at) / RFU IL23R (11737362_x_at) / Fold change /veh IL23R (11737362_x_at) / RFU TMEM51 (11727254_a_at) / Fold change /veh TMEM51 (11727254_a_at) / RFU PIWIL2 (11732686_x_at) / Fold change /veh PIWIL2 (11732686_x_at) / RFU ORM1 (11744905_x_at) / Fold change /veh ORM1 (11744905_x_at) / RFU CCDC152 (11743942_at) / Fold change /veh CCDC152 (11743942_at) / RFU ECM1 (11717891_a_at) / Fold change /veh ECM1 (11717891_a_at) / RFU IL23R (11748794_a_at) / Fold change /veh IL23R (11748794_a_at) / RFU TNFAIP8L3 (11732012_x_at) / Fold change /veh TNFAIP8L3 (11732012_x_at) / RFU MBOAT4 (11741988_at) / Fold change /veh MBOAT4 (11741988_at) / RFU 11764193_at / Fold change /veh 11764193_at / RFU TMEM53 (11763286_at) / Fold change /veh TMEM53 (11763286_at) / RFU MAGEB2 (11727129_at) / Fold change /veh MAGEB2 (11727129_at) / RFU TMEM200A (11744735_a_at) / Fold change /veh TMEM200A (11744735_a_at) / RFU CCDC152 (11751479_a_at) / Fold change /veh CCDC152 (11751479_a_at) / RFU FAM211A (11726209_a_at) / Fold change /veh FAM211A (11726209_a_at) / RFU RGS16 (11746705_a_at) / Fold change /veh RGS16 (11746705_a_at) / RFU VCAN (11755009_s_at) / Fold change /veh VCAN (11755009_s_at) / RFU RHOB (11743442_s_at) / Fold change /veh RHOB (11743442_s_at) / RFU RGS16 (11720943_a_at) / Fold change /veh RGS16 (11720943_a_at) / RFU RGS16 (11720944_at) / Fold change /veh RGS16 (11720944_at) / RFU, VPS4B / Fold change vs veh, VPS4B / RFU, CREB1 / Fold change vs veh, CREB1 / RFU, DNAJC13 / Fold change vs veh, DNAJC13 / RFU, GNAQ / Fold change vs veh, GNAQ / RFU, CDK5R1 / Fold change vs veh, CDK5R1 / RFU, ZRANB3 / Fold change vs veh, ZRANB3 / RFU, CUL4A / Fold change vs veh, CUL4A / RFU, CCNY / Fold change vs veh, CCNY / RFU, UFL1 / Fold change vs veh, UFL1 / RFU, COG3 / Fold change vs veh, COG3 / RFU, DIAPH2 / Fold change vs veh, DIAPH2 / RFU, SKA2 / Fold change vs veh, SKA2 / RFU, AFF3 / Fold change vs veh, AFF3 / RFU, LMF1 / Fold change vs veh, LMF1 / RFU, IPO11 / Fold change vs veh, IPO11 / RFU, DFFB / Fold change vs veh, DFFB / RFU, FOXP1 / Fold change vs veh, FOXP1 / RFU, CARD8 / Fold change vs veh, CARD8 / RFU, STRN3 / Fold change vs veh, STRN3 / RFU, ADK / Fold change vs veh, ADK / RFU, RASSF2 / Fold change vs veh, RASSF2 / RFU, WIPF1 / Fold change vs veh, WIPF1 / RFU, LARP1B / Fold change vs veh, LARP1B / RFU, RASA1 / Fold change vs veh, RASA1 / RFU, RB1 / Fold change vs veh, RB1 / RFU, PPFIA1 / Fold change vs veh, PPFIA1 / RFU, MAT2A / Fold change vs veh, MAT2A / RFU, CCT5 / Fold change vs veh, CCT5 / RFU, WDR92 / Fold change vs veh, WDR92 / RFU, CUX1 / Fold change vs veh, CUX1 / RFU, TTC7A / Fold change vs veh, TTC7A / RFU, TMEM135 / Fold change vs veh, TMEM135 / RFU, DEPTOR / Fold change vs veh, DEPTOR / RFU, CPM / Fold change vs veh, CPM / RFU, DNAJB6 / Fold change vs veh, DNAJB6 / RFU, CACNA2D3 / Fold change vs veh, CACNA2D3 / RFU, DTX4 / Fold change vs veh, DTX4 / RFU, TFCP2 / Fold change vs veh, TFCP2 / RFU, GMCL1 /// GMCL1P1 / Fold change vs veh, GMCL1 /// GMCL1P1 / RFU, AEBP2 / Fold change vs veh, AEBP2 / RFU, SNHG1 /// SNORD22 /// SNORD25 /// SNORD26 /// SNORD27 /// SNORD28 /// SNORD29 /// SNORD31 / Fold change vs veh, SNHG1 /// SNORD22 /// SNORD25 /// SNORD26 /// SNORD27 /// SNORD28 /// SNORD29 /// SNORD31 / Fold change (Aza/veh), C12orf56 (ProbeSet 11735607_a_at) / Fold change (ACY-1035/veh), C12orf56 (ProbeSet 11735607_a_at) / Fold change (Aza/veh), FGFR1OP (ProbeSet 11751329_s_at) / Fold change (ACY-1035/veh), FGFR1OP (ProbeSet 11751329_s_at) / Fold change (Aza/veh), VPS36 (ProbeSet 11739960_a_at) / Fold change (ACY-1035/veh), VPS36 (ProbeSet 11739960_a_at) / RFU SYPL1 (11715823_x_at) / Fold change /veh SYPL1 (11715823_x_at) / RFU IGFBP7 (11715501_s_at) / Fold change /veh IGFBP7 (11715501_s_at) / RFU REEP3 (11722064_at) / Fold change /veh REEP3 (11722064_at) / RFU IGLL1 (11728026_x_at) / Fold change /veh IGLL1 (11728026_x_at): dose or concentration left out as unconfirmed
Details: MV-4-11 cells, 48 hours

## Nc1ccc(-c2cccs2)cc1NC(=O)c1ccc2c(c1)cc(C1CC1)n2CCN1CCOCC1 [ACY-1035]
  Fold change /veh RGS16 (11720944_at): 0.97

Source: paper PMC5218480 (PLoS ONE, 2017)
